According to the supplement of paper PMC10627819:

Key:
Experiment in all cases: fitness (endpoint OD595 vs no drug) (fraction); higher = more growth
B. subtilis 168 = test system: B. subtilis 168
Procedure, shortened: (§1)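 With the first reading as background, OD595 was measured every 30 min for 14 h in 384-well plates kept at 37 °C and inoculated at OD595 0.01. TSB, LB Lennox or CY was the medium. Fitness is the optical density at the transition into stationary phase divided by the robust mean of no-drug control wells, with a cap of 1.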

S. aureus Newman = test system: S. aureus Newman
Procedure, shortened: as §1

S. pneumoniae D39V = test system: S. pneumoniae D39V
Procedure, shortened: as §1
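Further: OD595 on entry to stationary phase over no-drug wells; at most 1.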

O=C(O)c1cn(C2CC2)c2cc(N3CCNCC3)c(F)cc2c1=O [Ciprofloxacin] + CO/N=C(\C(=O)N[C@@H]1C(=O)N2C(C(=O)O)=C(COC(C)=O)CS[C@H]12)c1csc(N)n1 [Cefotaxime]
fitness, one replicate
Conditions	partner 0.00775 µg/mL	partner 0.0155 µg/mL	partner 0.031 µg/mL	partner 0.039 µg/mL	partner 0.0625 µg/mL	partner 0.125 µg/mL	partner 0.25 µg/mL	partner 0.312 µg/mL
B. subtilis 168, first compound 0.0098 µg/mL	0.764	0.594	0.347	–	0.475	0.333	0.263	–
B. subtilis 168, first compound 0.0195 µg/mL	0.546	0.205	0.063	–	0.231	0.129	0.0436	–
B. subtilis 168, first compound 0.039 µg/mL	0.0504	0.0283	0.045	–	0.0338	0.0283	0.0507	–
S. aureus Newman, first compound 0.0375 µg/mL	–	–	–	0.633	–	–	–	0.217
S. aureus Newman, first compound 0.075 µg/mL	–	–	–	0.691	–	–	–	0.0389
S. aureus Newman, first compound 0.15 µg/mL	–	–	–	0.0625	–	–	–	0.0381

Conditions	fitness
B. subtilis 168, first compound 0.0098 µg/mL, partner 0.5 µg/mL	0.141
B. subtilis 168, first compound 0.0098 µg/mL, partner 1 µg/mL	0.0495
B. subtilis 168, first compound 0.0098 µg/mL, partner 2 µg/mL	0.0625
B. subtilis 168, first compound 0.0195 µg/mL, partner 0.5 µg/mL	0.0302
B. subtilis 168, first compound 0.0195 µg/mL, partner 1 µg/mL	0.0272
B. subtilis 168, first compound 0.0195 µg/mL, partner 2 µg/mL	0.0392
B. subtilis 168, first compound 0.039 µg/mL, partner 0.5 µg/mL	0.0615
B. subtilis 168, first compound 0.039 µg/mL, partner 1 µg/mL	0.0416
B. subtilis 168, first compound 0.039 µg/mL, partner 2 µg/mL	0.0569
S. aureus Newman, first compound 0.0375 µg/mL, partner 0.078 µg/mL	0.578
S. aureus Newman, first compound 0.0375 µg/mL, partner 0.156 µg/mL	0.489
S. aureus Newman, first compound 0.0375 µg/mL, partner 0.625 µg/mL	0.0622
S. aureus Newman, first compound 0.0375 µg/mL, partner 1.25 µg/mL	0.0267
S. aureus Newman, first compound 0.0375 µg/mL, partner 2.5 µg/mL	0.0312
S. aureus Newman, first compound 0.075 µg/mL, partner 0.078 µg/mL	0.518
S. aureus Newman, first compound 0.075 µg/mL, partner 0.625 µg/mL	0.0809
S. aureus Newman, first compound 0.075 µg/mL, partner 1.25 µg/mL	0.0731
S. aureus Newman, first compound 0.075 µg/mL, partner 2.5 µg/mL	0.0893
S. aureus Newman, first compound 0.15 µg/mL, partner 0.078 µg/mL	0.0493
S. aureus Newman, first compound 0.15 µg/mL, partner 0.156 µg/mL	0.0219
S. aureus Newman, first compound 0.15 µg/mL, partner 0.625 µg/mL	0.0244
S. aureus Newman, first compound 0.15 µg/mL, partner 1.25 µg/mL	0.0309
S. aureus Newman, first compound 0.15 µg/mL, partner 2.5 µg/mL	0.0543
S. pneumoniae D39V, first compound 0.125 µg/mL, partner 0.0018 µg/mL	0.992
S. pneumoniae D39V, first compound 0.125 µg/mL, partner 0.0035 µg/mL	0.95
S. pneumoniae D39V, first compound 0.25 µg/mL, partner 0.0018 µg/mL	0.919
S. pneumoniae D39V, first compound 0.25 µg/mL, partner 0.0035 µg/mL	0.962
S. pneumoniae D39V, first compound 0.25 µg/mL, partner 0.007 µg/mL	0.873
S. pneumoniae D39V, first compound 0.5 µg/mL, partner 0.0018 µg/mL	0.809
S. pneumoniae D39V, first compound 0.5 µg/mL, partner 0.0035 µg/mL	0.803

CN(C)c1cc(NC(=O)CNC(C)(C)C)c(O)c2c1C[C@H]1C[C@H]3[C@H](N(C)C)C(O)=C(C(N)=O)C(=O)[C@@]3(O)C(O)=C1C2=O [Tigecycline] + Cn1nnc(-c2ccc(-c3ccc(N4C[C@H](CO)OC4=O)cc3F)cn2)n1 [Tedizolid]
fitness
Conditions	partner 0.03125 µg/mL	partner 0.0625 µg/mL	partner 0.125 µg/mL	partner 0.25 µg/mL	partner 0.5 µg/mL
S. aureus Newman, first compound 0.039 µg/mL	–	0.972	–	–	–
S. aureus Newman, first compound 0.078 µg/mL	–	0.941	0.844	0.469	–
S. aureus Newman, first compound 0.156 µg/mL	–	0.965	–	0.466	–
S. pneumoniae D39V, first compound 0.65 µg/mL	0.923	0.934	0.81	0.653	0.379
S. pneumoniae D39V, first compound 1.3 µg/mL	0.911	0.903	0.791	0.658	0.353
S. pneumoniae D39V, first compound 2.6 µg/mL	0.884	0.943	0.827	0.669	0.375

O=C(O)c1cn(C2CC2)c2cc(N3CCNCC3)c(F)cc2c1=O [Ciprofloxacin] + CO/N=C(\C(=O)N[C@@H]1C(=O)N2C(C(=O)O)=C(COC(N)=O)CS[C@H]12)c1ccco1 [Cefuroxime]
fitness, B. subtilis 168
Conditions	first compound 0.0098 µg/mL	first compound 0.0195 µg/mL	first compound 0.039 µg/mL
partner 0.04875 µg/mL	0.632	0.391	0.042
partner 0.0975 µg/mL	–	0.212	0.0421
partner 0.195 µg/mL	0.317	0.0634	0.0359

fitness, one replicate
Conditions	partner 0.04875 µg/mL	partner 0.0975 µg/mL	partner 0.195 µg/mL	partner 0.39 µg/mL	partner 0.78 µg/mL	partner 1.562 µg/mL	partner 3.125 µg/mL	partner 6.25 µg/mL
B. subtilis 168, first compound 0.0098 µg/mL	–	–	–	0.266	0.224	0.24	0.179	0.0609
B. subtilis 168, first compound 0.0195 µg/mL	–	–	–	0.0291	0.0398	0.0343	0.0254	0.0167
B. subtilis 168, first compound 0.039 µg/mL	–	–	–	0.0168	0.0177	0.0261	0.0302	0.0254
S. aureus Newman, first compound 0.078 µg/mL	0.554	0.441	0.469	–	–	–	–	–
S. aureus Newman, first compound 0.156 µg/mL	0.0634	0.0619	0.0412	–	–	–	–	–
S. aureus Newman, first compound 0.312 µg/mL	0.0573	0.0666	0.061	–	–	–	–	–
